Laboratory results taken from patent publication US9738932B2, “Biomarkers for cardiovascular side-effects induced by cox-2 inhibitory compounds” (FIRALIS SAS, priority 2005, dated 2017).

System: mRNA expression in cardiovascular tissues
Experiment: Affymetrix GeneChip mRNA expression profiling of monkey tissues (iliac vein, pulmonary vein, aorta, carotid artery, heart) after two-week oral-gavage treatment
Conditions: iliac vein
[1] = group average (Vioxx without A60055)
[2] = group avg, Vioxx without A60055

Cc1ccc(Nc2c(F)cccc2Cl)c(CC(=O)O)c1 [COX189, Lumiracoxib]
1.1 fold: B2M (216231_s_at) mRNA expression, Avg fold changes vs control [1] | CD2 (205831_at) mRNA expression, Avg fold changes vs control [1] | IL13RA1 (210904_s_at) mRNA expression, Avg fold changes vs control [1] | PIK3CD (203879_at) mRNA expression, Avg fold changes vs control [1] | PRKCBP1 (209048_s_at) mRNA expression, Avg fold changes vs control [1] | TMSB10 (217733_s_at) mRNA expression, Avg fold changes vs control [1] | TNFRSF21 (218856_at) mRNA expression, Avg fold changes vs control [1] | BTN3A3 (204820_s_at) avg fold change vs control [2] | C2 (203052_at) avg fold change vs control [2] | CASP1 (209970_x_at) avg fold change vs control [2] | CMAH (210571_s_at) avg fold change vs control [2] | CTSC (201487_at) avg fold change vs control [2] | CTSS (202902_s_at) avg fold change vs control [2] | F13A1 (203305_at) avg fold change vs control [2] | HCK (208018_s_at) avg fold change vs control [2]
1.0 fold: CD48 (204118_at) mRNA expression, Avg fold changes vs control [1] | CD53 (203416_at) mRNA expression, Avg fold changes vs control [1] | CDC2 (210559_s_at) mRNA expression, Avg fold changes vs control [1] | FCER1G (204232_at) mRNA expression, Avg fold changes vs control [1] | FCGRT (218831_s_at) mRNA expression, Avg fold changes vs control [1] | HCLS1 (202957_at) mRNA expression, Avg fold changes vs control [1] | HEM1 (209734_at) mRNA expression, Avg fold changes vs control [1] | HLA-E (200904_at) mRNA expression, Avg fold changes vs control [1] | ICAM1 (202637_s_at) mRNA expression, Avg fold changes vs control [1] | PTPN7 (204852_s_at) mRNA expression, Avg fold changes vs control [1] | STAT3 (208992_s_at) mRNA expression, Avg fold changes vs control [1] | TCIRG1 (204158_s_at) mRNA expression, Avg fold changes vs control [1] | 209813_x_at avg fold change vs control [2] | B2M (201891_s_at) avg fold change vs control [2] | BCL3 (204908_s_at) avg fold change vs control [2] | BTN3A3 (38241_at) avg fold change vs control [2] | C1QA (218232_at) avg fold change vs control [2] | C1QB (202953_at) avg fold change vs control [2] | C1R (212067_s_at) avg fold change vs control [2] | C1S (208747_s_at) avg fold change vs control [2] | CD74 (209619_at) avg fold change vs control [2] | CLU (208791_at) avg fold change vs control [2] | CYBB (203923_s_at) avg fold change vs control [2] | CYP11B1 (214630_at) avg fold change vs control [2] | ECM1 (209365_s_at) avg fold change vs control [2] | FCGR1A (214511_x_at) avg fold change vs control [2] | FCGR3A (204006_s_at) avg fold change vs control [2]
1.6 fold: CCL2 (216598_s_at) avg fold change vs control [2]
1.7 fold: CCL8 (214038_at) avg fold change vs control [2] | CD3D (213539_at) avg fold change vs control [2] | CXCL9 (203915_at) avg fold change vs control [2] | ECGF1 (204858_s_at) avg fold change vs control [2]
1.3 fold: BTN2A2 (205298_s_at) mRNA expression, Avg fold changes vs control [1] | STAT1 (200887_s_at) mRNA expression, Avg fold changes vs control [1] | STAT1 (AFFX-HUMISGF3A/M97935_3_at) mRNA expression, Avg fold changes vs control [1] | TRB@ (210915_x_at) mRNA expression, Avg fold changes vs control [1] | CYP1B1 (202436_s_at) avg fold change vs control [2] | CYP3A5 (214234_s_at) avg fold change vs control [2] | HFE (210864_x_at) avg fold change vs control [2]
0.9 fold: CYBB (203922_s_at) mRNA expression, Avg fold changes vs control [1] | PRKCBP1 (209049_s_at) mRNA expression, Avg fold changes vs control [1] | SIGIRR (52940_at) mRNA expression, Avg fold changes vs control [1] | THY1 (213869_x_at) mRNA expression, Avg fold changes vs control [1] | TMPO (209753_s_at) mRNA expression, Avg fold changes vs control [1] | C4A (208451_s_at) avg fold change vs control [2] | CCL3 (205114_s_at) avg fold change vs control [2] | CCL5 (1405_i_at) avg fold change vs control [2] | DUSP6 (208893_s_at) avg fold change vs control [2] | HCA127 (220040_x_at) avg fold change vs control [2]
1.8 fold: F2RL1 (206429_at) avg fold change vs control [2]
1.5 fold: HLA-C (211799_x_at) mRNA expression, Avg fold changes vs control [1] | BTN3A3 (204821_at) avg fold change vs control [2] | G1P2 (205483_s_at) avg fold change vs control [2]
1.4 fold: BCL6 (215990_s_at) mRNA expression, Avg fold changes vs control [1] | HLA-F (221978_at) mRNA expression, Avg fold changes vs control [1] | CCL19 (210072_at) avg fold change vs control [2] | CCNB2 (202705_at) avg fold change vs control [2] | CXCL10 (204533_at) avg fold change vs control [2]
0.8 fold: ACE (209749_s_at) mRNA expression, Avg fold changes vs control [1] | CCR1 (205098_at) mRNA expression, Avg fold changes vs control [1] | EMP3 (203729_at) mRNA expression, Avg fold changes vs control [1] | FCGR2A (203561_at) mRNA expression, Avg fold changes vs control [1] | FKBP11 (219118_at) mRNA expression, Avg fold changes vs control [1] | CXCL12 (209687_at) avg fold change vs control [2] | GZMB (210164_at) avg fold change vs control [2]
0.7 fold: FKBP11 (219117_s_at) mRNA expression, Avg fold changes vs control [1] | AIF1 (209901_x_at) avg fold change vs control [2] | CD14 (201743_at) avg fold change vs control [2]
0.5 fold: AIF1 (213095_x_at) avg fold change vs control [2]
2.3 fold: CCL18 (209924_at) avg fold change vs control [2] | CXCL11 (211122_s_at) avg fold change vs control [2]
1.2 fold: GP6 (220336_s_at) mRNA expression, Avg fold changes vs control [1] | HLA-A (210514_x_at) mRNA expression, Avg fold changes vs control [1] | HLA-A (213932_x_at) mRNA expression, Avg fold changes vs control [1] | TRB@ (213193_x_at) mRNA expression, Avg fold changes vs control [1] | CASP1 (211367_s_at) avg fold change vs control [2] | CD8A (205758_at) avg fold change vs control [2] | CTSK (202450_s_at) avg fold change vs control [2] | CX3CR1 (205898_at) avg fold change vs control [2] | CYBA (203028_s_at) avg fold change vs control [2]
2.1 fold: BTN3A1 (207485_x_at) avg fold change vs control [2]
2.6 fold: CXCL11 (210163_at) avg fold change vs control [2]
